From the kinase profiling compilation of Christmann-Franck et al. (2016)

Assays:
Assay in all cases: KINOMEscan competition binding
Details in all cases: compound 10.0 µM
[1] = target: MAP4K2 (human) (UniProt Q12851)
[2] = target: PRKG1 (human) (UniProt Q13976)
[3] = target: NEK2 (human) (UniProt P51955)
[4] = target: CAMK4 (human) (UniProt Q16566)
[5] = target: LATS2 (human) (UniProt Q9NRM7)
[6] = target: CAMK1D (human) (UniProt Q8IU85)
[7] = target: EPHB2 (human) (UniProt P29323)
[8] = target: MAPK15 (human) (UniProt Q8TD08)
[9] = target: PHKG1 (human) (UniProt Q16816)
[10] = target: STK10 (human) (UniProt O94804)
[11] = target: LYN (human) (UniProt P07948)
[12] = target: RET (human) (UniProt P07949)
[13] = target: CAMKK1 (human) (UniProt Q8N5S9)
[14] = target: RPS6KA2 KD1 (human) (UniProt Q15349)
[15] = target: MAPKAPK2 (human) (UniProt P49137)
[16] = target: PRKG2 (human) (UniProt Q13237)
[17] = target: AKT1 (human) (UniProt P31749)
[18] = target: RPS6KA5 KD2 (human) (UniProt O75582)
[19] = target: DCLK2 (human) (UniProt Q8N568)
[20] = system: KIT (human), P10721 [D816V]
[21] = target: ULK3 (human) (UniProt Q6PHR2)
[22] = target: ERBB4 (human) (UniProt Q15303)
[23] = target: NUAK1 (human) (UniProt O60285)
[24] = target: CDK11B (human) (UniProt P21127)
[25] = target: NTRK2 (human) (UniProt Q16620)
[26] = target: MAP3K12 (human) (UniProt Q12852)
[27] = target: MAPKAPK5 (human) (UniProt Q8IW41)
[28] = target: PIM3 (human) (UniProt Q86V86)
[29] = target: ANKK1 (human) (UniProt Q8NFD2)
[30] = target: PRKCE (human) (UniProt Q02156)
[31] = target: DCLK3 (human) (UniProt Q9C098)
[32] = target: WEE1 (human) (UniProt P30291)
[33] = target: RPS6KA6 KD2 (human) (UniProt Q9UK32)
[34] = target: DAPK1 (human) (UniProt P53355)
[35] = target: FLT1 (human) (UniProt P17948)
[36] = target: EPHA6 (human) (UniProt Q9UF33)
[37] = target: ACVRL1 (human) (UniProt P37023)
[38] = target: RIPK4 (human) (UniProt P57078)
[39] = target: MYLK4 (human) (UniProt Q86YV6)
[40] = target: TEK (human) (UniProt Q02763)
TEK (human), sequence (Q02763 whole entry, looked up): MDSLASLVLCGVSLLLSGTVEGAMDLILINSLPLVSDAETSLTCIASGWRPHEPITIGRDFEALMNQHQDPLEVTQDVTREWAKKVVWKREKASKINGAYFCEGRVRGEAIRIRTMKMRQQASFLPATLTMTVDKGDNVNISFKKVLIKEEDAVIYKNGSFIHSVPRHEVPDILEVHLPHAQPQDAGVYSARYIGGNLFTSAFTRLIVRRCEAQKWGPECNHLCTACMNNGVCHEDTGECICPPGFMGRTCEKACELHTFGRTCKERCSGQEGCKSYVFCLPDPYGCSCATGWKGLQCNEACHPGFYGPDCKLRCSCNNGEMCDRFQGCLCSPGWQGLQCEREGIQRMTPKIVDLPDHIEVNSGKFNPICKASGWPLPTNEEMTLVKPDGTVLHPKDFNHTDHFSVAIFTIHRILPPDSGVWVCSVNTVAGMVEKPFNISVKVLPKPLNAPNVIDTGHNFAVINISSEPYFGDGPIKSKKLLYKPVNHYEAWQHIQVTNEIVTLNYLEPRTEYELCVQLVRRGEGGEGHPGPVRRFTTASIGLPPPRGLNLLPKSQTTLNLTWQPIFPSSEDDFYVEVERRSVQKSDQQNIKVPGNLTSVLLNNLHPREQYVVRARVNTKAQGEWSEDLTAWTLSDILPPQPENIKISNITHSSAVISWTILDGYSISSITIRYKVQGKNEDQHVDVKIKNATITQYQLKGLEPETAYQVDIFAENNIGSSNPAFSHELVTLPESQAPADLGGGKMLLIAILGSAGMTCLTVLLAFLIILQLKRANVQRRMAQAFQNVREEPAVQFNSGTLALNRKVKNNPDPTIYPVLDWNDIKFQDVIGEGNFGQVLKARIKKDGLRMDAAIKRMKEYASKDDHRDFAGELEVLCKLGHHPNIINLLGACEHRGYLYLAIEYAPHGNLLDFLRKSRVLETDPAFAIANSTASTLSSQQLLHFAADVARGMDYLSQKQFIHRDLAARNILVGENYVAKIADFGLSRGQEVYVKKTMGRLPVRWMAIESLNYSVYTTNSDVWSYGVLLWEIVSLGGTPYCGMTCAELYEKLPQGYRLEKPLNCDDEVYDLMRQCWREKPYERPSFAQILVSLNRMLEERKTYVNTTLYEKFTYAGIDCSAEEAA

NEK2 (human), sequence (P51955 whole entry, looked up): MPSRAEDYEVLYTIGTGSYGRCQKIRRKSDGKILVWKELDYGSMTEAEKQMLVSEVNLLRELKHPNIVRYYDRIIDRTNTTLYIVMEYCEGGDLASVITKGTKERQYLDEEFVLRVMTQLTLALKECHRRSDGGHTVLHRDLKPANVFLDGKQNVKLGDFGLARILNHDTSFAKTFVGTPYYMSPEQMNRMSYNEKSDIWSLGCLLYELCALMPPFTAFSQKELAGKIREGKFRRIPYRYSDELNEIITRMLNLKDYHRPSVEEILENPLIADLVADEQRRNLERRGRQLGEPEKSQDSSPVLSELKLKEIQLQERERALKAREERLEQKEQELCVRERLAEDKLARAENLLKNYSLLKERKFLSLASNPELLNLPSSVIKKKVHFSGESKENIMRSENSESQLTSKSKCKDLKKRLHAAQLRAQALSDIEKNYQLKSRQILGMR
RPS6KA6 KD2 (human), sequence (Q9UK32 whole entry, looked up): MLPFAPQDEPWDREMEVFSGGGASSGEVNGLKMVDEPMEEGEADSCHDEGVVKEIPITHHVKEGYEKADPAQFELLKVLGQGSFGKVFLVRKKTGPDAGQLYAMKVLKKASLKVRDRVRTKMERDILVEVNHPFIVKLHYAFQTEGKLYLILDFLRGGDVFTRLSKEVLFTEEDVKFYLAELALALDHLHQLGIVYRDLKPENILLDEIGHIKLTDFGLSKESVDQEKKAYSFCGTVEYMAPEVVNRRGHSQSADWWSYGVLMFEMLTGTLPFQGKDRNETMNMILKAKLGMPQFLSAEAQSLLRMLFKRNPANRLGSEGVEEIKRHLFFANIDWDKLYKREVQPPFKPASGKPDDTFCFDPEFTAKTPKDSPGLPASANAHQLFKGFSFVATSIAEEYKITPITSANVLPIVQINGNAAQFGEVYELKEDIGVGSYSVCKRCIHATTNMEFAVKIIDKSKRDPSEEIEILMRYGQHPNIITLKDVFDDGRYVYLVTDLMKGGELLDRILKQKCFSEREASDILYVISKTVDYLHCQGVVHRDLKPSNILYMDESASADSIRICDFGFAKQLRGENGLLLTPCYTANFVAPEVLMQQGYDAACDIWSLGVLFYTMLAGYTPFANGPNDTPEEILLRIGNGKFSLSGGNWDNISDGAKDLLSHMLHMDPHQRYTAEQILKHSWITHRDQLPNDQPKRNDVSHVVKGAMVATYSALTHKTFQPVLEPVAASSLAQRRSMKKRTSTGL
MAPK15 (human), sequence (Q8TD08 whole entry, looked up): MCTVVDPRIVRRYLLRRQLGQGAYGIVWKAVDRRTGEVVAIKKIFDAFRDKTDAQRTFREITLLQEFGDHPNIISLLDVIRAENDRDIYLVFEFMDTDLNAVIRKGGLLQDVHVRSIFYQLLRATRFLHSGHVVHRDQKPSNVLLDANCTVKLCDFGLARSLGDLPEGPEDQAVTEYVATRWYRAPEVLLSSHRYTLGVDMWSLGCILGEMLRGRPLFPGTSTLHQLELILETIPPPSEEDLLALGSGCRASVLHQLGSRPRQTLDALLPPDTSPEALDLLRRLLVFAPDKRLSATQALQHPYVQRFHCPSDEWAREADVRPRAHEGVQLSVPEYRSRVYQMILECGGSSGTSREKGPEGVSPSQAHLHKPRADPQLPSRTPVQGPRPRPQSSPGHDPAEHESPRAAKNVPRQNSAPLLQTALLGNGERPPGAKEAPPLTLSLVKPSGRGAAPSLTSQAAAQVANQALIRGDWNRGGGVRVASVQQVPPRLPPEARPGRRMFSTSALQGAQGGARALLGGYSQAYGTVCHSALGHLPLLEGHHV
MAP3K12 (human), sequence (Q12852 whole entry, looked up): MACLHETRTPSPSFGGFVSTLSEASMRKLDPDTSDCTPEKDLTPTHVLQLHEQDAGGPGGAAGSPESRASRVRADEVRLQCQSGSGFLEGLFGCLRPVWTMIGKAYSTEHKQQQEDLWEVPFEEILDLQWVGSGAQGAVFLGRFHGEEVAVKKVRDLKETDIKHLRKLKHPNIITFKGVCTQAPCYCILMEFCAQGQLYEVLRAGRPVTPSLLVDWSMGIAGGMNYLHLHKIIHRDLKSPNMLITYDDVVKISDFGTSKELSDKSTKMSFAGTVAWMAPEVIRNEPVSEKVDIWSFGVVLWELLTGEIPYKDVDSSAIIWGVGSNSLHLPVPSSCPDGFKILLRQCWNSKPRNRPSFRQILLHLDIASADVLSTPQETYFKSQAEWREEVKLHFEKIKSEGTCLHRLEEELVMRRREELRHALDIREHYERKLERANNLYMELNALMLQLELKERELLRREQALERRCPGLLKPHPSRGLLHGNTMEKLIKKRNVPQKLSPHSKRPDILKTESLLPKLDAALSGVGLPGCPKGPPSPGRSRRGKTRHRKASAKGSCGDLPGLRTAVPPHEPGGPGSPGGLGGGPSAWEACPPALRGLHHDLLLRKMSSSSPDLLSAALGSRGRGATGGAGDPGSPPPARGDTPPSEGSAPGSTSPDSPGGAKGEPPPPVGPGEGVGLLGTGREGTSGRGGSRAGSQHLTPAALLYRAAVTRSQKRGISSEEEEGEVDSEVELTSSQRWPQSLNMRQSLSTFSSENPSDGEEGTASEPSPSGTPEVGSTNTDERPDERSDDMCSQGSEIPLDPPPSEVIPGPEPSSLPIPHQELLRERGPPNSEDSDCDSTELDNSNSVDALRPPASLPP
CAMK4 (human), sequence (Q16566 whole entry, looked up): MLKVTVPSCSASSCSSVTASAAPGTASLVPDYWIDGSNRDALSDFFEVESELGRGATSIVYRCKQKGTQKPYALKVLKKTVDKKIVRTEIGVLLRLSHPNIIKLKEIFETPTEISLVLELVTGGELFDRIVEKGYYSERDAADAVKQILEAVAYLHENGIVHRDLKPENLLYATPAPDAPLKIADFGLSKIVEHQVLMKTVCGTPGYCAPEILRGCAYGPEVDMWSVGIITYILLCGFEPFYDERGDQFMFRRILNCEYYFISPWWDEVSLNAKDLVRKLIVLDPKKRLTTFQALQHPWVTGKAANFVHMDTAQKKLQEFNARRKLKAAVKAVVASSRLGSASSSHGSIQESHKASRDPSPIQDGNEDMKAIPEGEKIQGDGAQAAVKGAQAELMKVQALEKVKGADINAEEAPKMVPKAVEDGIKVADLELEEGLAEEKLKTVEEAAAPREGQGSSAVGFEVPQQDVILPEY
ACVRL1 (human), sequence (P37023 whole entry, looked up): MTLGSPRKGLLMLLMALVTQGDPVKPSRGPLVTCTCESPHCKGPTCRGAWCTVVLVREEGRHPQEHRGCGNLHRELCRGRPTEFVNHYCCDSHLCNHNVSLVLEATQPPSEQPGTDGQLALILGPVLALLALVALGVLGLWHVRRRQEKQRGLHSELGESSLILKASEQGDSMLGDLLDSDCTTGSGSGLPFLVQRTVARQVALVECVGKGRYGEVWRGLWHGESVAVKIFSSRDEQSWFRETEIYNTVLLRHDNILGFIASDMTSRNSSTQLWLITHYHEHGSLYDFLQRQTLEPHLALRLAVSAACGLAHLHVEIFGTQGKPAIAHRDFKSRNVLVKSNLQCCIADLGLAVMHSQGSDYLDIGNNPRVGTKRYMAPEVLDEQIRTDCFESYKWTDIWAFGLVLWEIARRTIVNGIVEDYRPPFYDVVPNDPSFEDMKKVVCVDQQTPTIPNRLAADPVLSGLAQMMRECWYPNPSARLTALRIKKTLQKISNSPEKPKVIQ

Row | Compound | kinase still bound, per cent of control [1] [%] | kinase still bound, per cent of control [2] [%] | kinase still bound, per cent of control [3] [%] | kinase still bound, per cent of control [4] [%] | kinase still bound, per cent of control [5] [%] | kinase still bound, per cent of control [6] [%] | kinase still bound, per cent of control [7] [%] | kinase still bound, per cent of control [8] [%] | kinase still bound, per cent of control [9] [%] | kinase still bound, per cent of control [10] [%] | kinase still bound, per cent of control [11] [%] | kinase still bound, per cent of control [12] [%] | kinase still bound, per cent of control [13] [%] | kinase still bound, per cent of control [14] [%] | kinase still bound, per cent of control [15] [%] | kinase still bound, per cent of control [16] [%] | kinase still bound, per cent of control [17] [%] | kinase still bound, per cent of control [18] [%] | kinase still bound, per cent of control [19] [%] | kinase still bound, per cent of control [20] [%] | other results
1 | Cc1ccc(C(=O)Nc2cccc(C(F)(F)F)c2)cc1Nc1cncc(C(N)=O)c1 | 100 | 100 | 100 | 100 | 100 | 100 | 1.6 | 100 | 100 | 100 | 9.4 | 100 | 100 | 100 | 100 | 100 | 100 | 100 | 100 | 100 | kinase still bound, per cent of control [21]: 100%; kinase still bound, per cent of control [22]: 100%; kinase still bound, per cent of control [23]: 100%; kinase still bound, per cent of control [24]: 100%; kinase still bound, per cent of control [25]: 32%; kinase still bound, per cent of control [26]: 100%; kinase still bound, per cent of control [27]: 100%; kinase still bound, per cent of control [28]: 100%; kinase still bound, per cent of control [29]: 100%; kinase still bound, per cent of control [30]: 100%; kinase still bound, per cent of control [31]: 100%; kinase still bound, per cent of control [32]: 100%; kinase still bound, per cent of control [33]: 100%; kinase still bound, per cent of control [34]: 100%; kinase still bound, per cent of control [35]: 33%; kinase still bound, per cent of control [36]: 100%; kinase still bound, per cent of control [37]: 100%; kinase still bound, per cent of control [38]: 100%; kinase still bound, per cent of control [39]: 100%; kinase still bound, per cent of control [40]: 100%
2 | Cc1ccc(NC(=O)c2cccc(C(C)(C)C#N)c2)cc1Nc1ccc2ncn(C)c(=O)c2c1 | 62 | 100 | 100 | 100 | 99 | 100 | 0 | 100 | 100 | 0.1 | 0.3 | 0.15 | 34 | 89 | 100 | 100 | 100 | 100 | 100 | 16 | kinase still bound, per cent of control [21]: 97%; kinase still bound, per cent of control [22]: 34%; kinase still bound, per cent of control [23]: 100%; kinase still bound, per cent of control [24]: 11%; kinase still bound, per cent of control [25]: 77%; kinase still bound, per cent of control [26]: 74%; kinase still bound, per cent of control [27]: 100%; kinase still bound, per cent of control [28]: 98%; kinase still bound, per cent of control [29]: 100%; kinase still bound, per cent of control [30]: 100%; kinase still bound, per cent of control [31]: 100%; kinase still bound, per cent of control [32]: 100%; kinase still bound, per cent of control [33]: 3.5%; kinase still bound, per cent of control [34]: 100%; kinase still bound, per cent of control [35]: 4.4%; kinase still bound, per cent of control [36]: 0%; kinase still bound, per cent of control [37]: 100%; kinase still bound, per cent of control [38]: 98%; kinase still bound, per cent of control [39]: 100%; kinase still bound, per cent of control [40]: 62%
